The values below come from patent publication US20070010548A1, “Compounds having inhibitive activity of phosphatidylinositol 3-kinase and methods of use thereof” (ZENTARIS GmbH, priority 2003, published 2007).

Molecules are shown by their SMILES.

For assay [1], the system named is phospho-Akt in MDA-MB-468 cells. Nature of the assay: Phospho-Akt levels in MDA-MB-468 cells (PathScan phospho-Akt ELISA / immunoblotting). The class given is cell-based, human. Particulars: 50 μM, 4 hours, serum-starved MDA-MB-468 cells; DMSO alone = 100%. The procedure: Because phosphorylation and activation of PKB/Akt is dependent on PI 3-K activity, PI 3-K inhibitors decrease the cellular levels of phospho-Akt. MDA-MB-468 cells show constitutively high levels of phospho-Akt as a result of abnormal activation of PI 3-K signaling.
The effect of treatment with PI 3-K inhibitors on phospho-Akt levels in these cells was determined as follows. Cells were plated into 6-well cell culture dishes at a density of 5×10^5 cells per well in RMPI media containing 10% fetal calf serum and 2 mM L-glutamine. Twenty-four hours later, media was removed and replaced with serum-free RMPI containing 2 mM L-glutamine. The cells were serum-starved overnight.
Compounds were diluted into serum-free media to a final concentration of 50 μM and added to the cells. The cells were incubated in the presence of PI 3-K inhibitors for 4 hours. Phospho-Akt levels were determined using one of the following methods.
To determine phospho-Akt levels using immunoblotting, cells were washed twice with PBS and lysed in ice-cold lysis buffer (1% Triton X-100, 50 mM Hepes pH 7.4, 150 mM NaCl, 1.5mM MgCl2, 1 mM EGTA, 100 mM NaF, 10 mM Sodium Pyrophosphate, 1 mM Na(subscript: 3)VO(subscript: 4), 10% glycerol, InmM phenylmethylsulfonyl fluoride, and 10 ug/ml aprotifin). Total protein concentration was determined using a BCA assay. 30ug of total cell lysate protein was diluted into Laemmli sample buffer and loaded onto a 10% acrylamide gel, subjected to SDS-PAGE, and transferred to a PVDF membrane. The membrane was blocked with 5% bovine serum albumin and then incubated at 4° C. overnight with antibody. The membrane was washed in TBS-T (10 mM Tris-HCl pH 7.4, 150 mM NaCl, and 0.1% Tween-20) and incubated with HRP-conjugated antibody (diluted in 5% milk in TBS-T) at room temperature for 1 h. The membrane was washed extensively and the proteins were visualized by chemiluminscent detection. The compounds effects on phospho-Akt levels were observed as relative differences in the amount of phospho-Akt detected by immunoblotting.
Effects on cellular levels of phospho-Akt following treatment with PI 3-K inhibitors were quantified using the PathScan phospho-Akt ELISA (Cell Signaling Technologies)., a sandwich ELISA for detection of phospho-Akt. The kit was used according to the manufacturer protocol. Absorbance at 450 nm was determined for each sample and used directly as equivalent of phospho-Akt levels.
Percent decreases in phospho-Akt levels were determined by normalizing relative to blank samples (0%/O) and control samples treated with DMSO alone (1 00%).

The next assay has as its system MA-MB-468 cells. Nature of the assay: Three dimensional matrix model of tumor cell growth. The class given is cell-based. Particulars: Homo sapiens, read-out: Percent Inhibition of Tumor Cell Viability. The procedure: PI 3-K inhibitors are assayed for effects on tumor cells grown in three-dimensional matrix that more closely mimics the environment of a tumor than other cell culture models. MA-MB-468 cells are mixed in a matrix solution, such as Matrigel (13D Biosciences) at 2×10 ^6 cells/ml and 100 μl of this mixture added to each well of a 24 well cell culture plate. Each well is 6.5 mm in diameter and 2×10^5 cells are added per well. Once the matrix is solidified, RMPI media containing 10% fetal calf serum and 2 mM L-glutamine is added to each well. After approximately 14 days of culture, the compounds are added to cell media at final concentrations ranging from 10 nM to 100 μM, and the cells are grown in the presence of the compounds for 7 days in RMPI media containing 0.5% fetal calf serum and 20 mM L-glutamine.
Following this treatment, cell growth in the three dimensional matrix can be measured using a cell viability assay such as the CellTiter 96 One Solution Cell Proliferation Assay (Promega, G3582). […] of assay solution is added per well, the cells are incubated for 3 hours. Absorbance at 550 nm is determined for each well and used directly as being equivalent of cell number. In addition, live and dead cells can be distinguished and observed using fluorescence microscopy after staining with Fluorescein diacetate (Sigma), which labels live cells, and propidium iodide (Sigma), which labels dead cells.
The PI 3-K inhibitors of the present invention show anti-proliferative effects in this model of tumor cell growth, as shown by the representative data in Table 6, which compares the anti-proliferative effects of one inhibitor compared to the effects of the benchmark PI 3-K inhibitor LY294002. The PI 3-K inhibitors of the present invention also show enhanced anti-proliferative activity when combined with other cancer drugs, for example paclitaxel or doxorubicin.

On to `CC1(C)CC(=O)C2=C(C1)Nc1c(c(C(C)(C)C)nn1C(C)(C)C)C2c1ccc(OCc2ccccc2)c(OCc2ccccc2)c1` (centres unmarked) [Compound 963985], for which the “Approx. % decrease phospho-Akt relative to controls” value in assay [1] was found to be 50%. For the same molecule, the cytotoxicity at 1 µM with MA-MB-468 cells (Concentration 1 μM) was determined as 10%. Besides, the cytotoxicity at 5 µM with MA-MB-468 cells (Concentration 5 μM) was determined as 20%. In addition, the cytotoxicity at 10 µM in the assay with MA-MB-468 cells (Concentration 10 μM) was 30%. The cytotoxicity at 50 µM in the assay on MA-MB-468 cells (Concentration 50 μM) worked out at 40%.

On to `CC1(C)CC(=O)C2=C(C1)Nc1c(c(-c3ccccc3)nn1-c1cccc(F)c1)C2c1ccc(C(F)(F)F)cc1` (centres unmarked) [Compound 964661], for which the “Approx. % decrease phospho-Akt relative to controls” value in assay [1] is on record as 40%. On the same count and under the same terms, to `Cc1ccc(C2C3=C(CC(C)(C)CC3=O)Nc3c2c(C(C)(C)C)nn3-c2ccc(C)cc2)cc1` (centres unmarked) [Compound 964028, 3-t-butyl-4-(4-methylphenyl)-7,7-dimethyl-1-(4-methylphenyl)-4,7,8,9-tetrahydro-1H-pyrazolo[3,4-b]quinolin-5(6H)-one] belongs 40%.

Take `COc1ccccc1C1C2=C(CC(C)(C)CC2=O)Nc2c1c(C(C)(C)C)nn2-c1ccc(Cl)c(C)c1` (centres unmarked) [Compound 964247]: the “Approx. % decrease phospho-Akt relative to controls” value in assay [1] was found to be 30%. Same read-out and setting: in the case of `COc1ccc(-n2nc(C(C)(C)C)c3c2NC2=C(C(=O)CC(C)(C)C2)C3c2ccccc2Cl)cc1` (centres unmarked) [Compound 964076, 3-t-butyl-4-(2-chlorophenyl)-7,7-dimethyl-1-(4-methoxyphenyl)-4,7,8,9-tetrahydro-1H-pyrazolo[3,4-b]quinolin-5(6H)-one] it was 60%; in that of `COc1ccc(OC)c(C2C3=C(CC(C)(C)CC3=O)Nc3c2c(C(C)(C)C)nn3-c2ccc(C)cc2C)c1` (centres unmarked) [Compound 964232], 50%; in that of `CC1(C)CC(=O)C2=C(C1)Nc1c(c(C(C)(C)C)nn1-c1ccc(Cl)c(Cl)c1)C2c1cccc(OCc2ccccc2)c1` (centres unmarked) [Compound 964260], 40%.
